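Interpolation was linear, between the two tested concentrations surrounding the appropriate level; five concentrations were tested over 48 hours in 96-well plates. Abbreviation: GI50, concentration required for 50% inhibition of growth.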 Activity calls are given as the source filed them. No stated cut-off is given here; in the data, active = GI50 up to about 1.1 µM and inactive = higher.
How the values were obtained:
Assay in all cases: NCI-60 cell line screen, 48 h
SF-268 = tested on: SF-268
M14 = tested on: M14
NCI-H23 = tested on: NCI-H23
RXF 393 = tested on: RXF 393
U-251 = tested on: U-251
HCC 2998 = tested on: HCC 2998
LXFL 529 = tested on: LXFL 529
HT-29 = tested on: HT-29
UACC-62 = tested on: UACC-62
HOP-92 = tested on: HOP-92
SW-620 = tested on: SW-620
NCI-H522 = tested on: NCI-H522
HOP-62 = tested on: HOP-62
KM12 = tested on: KM12
OVCAR-5 = tested on: OVCAR-5
CAKI-1 = tested on: CAKI-1
NCI-H226 = tested on: NCI-H226

Row | Compound | GI50 (SF-268) | GI50 (M14) | GI50 (NCI-H23) | GI50 (RXF 393) | GI50 (U-251) | GI50 (HCC 2998) | GI50 (LXFL 529) | GI50 (HT-29) | GI50 (UACC-62) | GI50 (HOP-92) | GI50 (SW-620) | GI50 (NCI-H522) | GI50 (HOP-62) | GI50 (KM12) | GI50 (OVCAR-5) | GI50 (CAKI-1) | GI50 (NCI-H226)
1 | NC(=O)N/N=C/C(=C/Nc1ccccc1)[N+](=O)[O-] | > 100 µM (inactive) | > 100 µM (inactive) | > 100 µM (inactive) | > 100 µM (inactive) | > 100 µM (inactive) | > 100 µM (inactive) | > 100 µM (inactive) | > 100 µM (inactive) | > 100 µM (inactive) | 79.3 µM (inactive) | > 100 µM (inactive) | > 100 µM (inactive) | > 100 µM (inactive) | – | – | – | –
2 | CN(C)CCC(/C=C/c1ccccc1)=N\Nc1ccccc1 | 0.736 µM (active) | 2.72 µM (inactive) | 3.97 µM (inactive) | 5.83 µM (inactive) | 1.83 µM (inactive) | – | 0.185 µM (active) | 2.97 µM (inactive) | 0.617 µM (active) | – | 0.335 µM (active) | 1.84 µM (inactive) | 2.59 µM (inactive) | 0.847 µM (active) | 1.98 µM (inactive) | – | –
3 | O=C1c2ccccc2C(=O)N1CCn1ccc(NC(c2ccccc2)(c2ccccc2)c2ccccc2)nc1=O | 19.2 µM (inactive) | 22 µM (inactive) | 24 µM (inactive) | 18.8 µM (inactive) | 16.4 µM (inactive) | 21.4 µM (inactive) | 28.4 µM (inactive) | 16.8 µM (inactive) | 12.6 µM (inactive) | 18.5 µM (inactive) | 29.3 µM (inactive) | 20.2 µM (inactive) | 17.5 µM (inactive) | 20.8 µM (inactive) | 25.1 µM (inactive) | 9.62 µM (inactive) | 18.7 µM (inactive)
4 | ON1CCc2c([nH]c3ccccc23)C1c1ccc(Cl)cc1 (configuration not stated) | 33 µM (inactive) | 42.7 µM (inactive) | 21.9 µM (inactive) | 22.1 µM (inactive) | 15.2 µM (inactive) | 23.8 µM (inactive) | 24 µM (inactive) | 17 µM (inactive) | 31 µM (inactive) | 16.8 µM (inactive) | 33.2 µM (inactive) | 28.1 µM (inactive) | 76.4 µM (inactive) | 27.5 µM (inactive) | 31.3 µM (inactive) | – | 20.3 µM (inactive)
5 | CC/C(C)=C1\CCC(CN2CCOCC2)C1=O (configuration not stated) | 11.5 µM (inactive) | 17.3 µM (inactive) | 13.8 µM (inactive) | 6.78 µM (inactive) | – | 24.2 µM (inactive) | 11.2 µM (inactive) | 15.6 µM (inactive) | 17.6 µM (inactive) | 14.6 µM (inactive) | 15.1 µM (inactive) | – | 23.1 µM (inactive) | 24.3 µM (inactive) | 17.5 µM (inactive) | 2.47 µM (inactive) | 82.2 µM (inactive)
6 | C[C@@H](CC(O)C1OC1(C)C)[C@@H]1CC[C@]2(C)C3=CCC4C(C)(C)C(O)CC[C@]4(C)C3CCC12C (some centres not stated) | 26.3 µM (inactive) | 13.9 µM (inactive) | 19.1 µM (inactive) | 16.7 µM (inactive) | 30.5 µM (inactive) | 48.6 µM (inactive) | 12.3 µM (inactive) | 11.4 µM (inactive) | 14.8 µM (inactive) | 17.9 µM (inactive) | 38.9 µM (inactive) | 11.8 µM (inactive) | 42.8 µM (inactive) | 22.9 µM (inactive) | 38 µM (inactive) | – | 18.5 µM (inactive)
7 | O=c1c2ccc3cccc4c(=O)cc(c5ccccc15)-c2c34 | > 100 µM (inactive) | > 100 µM (inactive) | 31.7 µM (inactive) | > 100 µM (inactive) | 45.4 µM (inactive) | > 100 µM (inactive) | 29.6 µM (inactive) | > 100 µM (inactive) | > 100 µM (inactive) | – | > 100 µM (inactive) | 76.9 µM (inactive) | > 100 µM (inactive) | > 100 µM (inactive) | > 100 µM (inactive) | > 100 µM (inactive) | > 100 µM (inactive)
8 | COC(=O)C(CC1=C(O)Nc2ccccc2N1)/C(=N/NC(N)=O)C(=O)Nc1ccccc1C (configuration not stated) | 16.5 µM (inactive) | > 100 µM (inactive) | > 100 µM (inactive) | 38.5 µM (inactive) | > 100 µM (inactive) | > 100 µM (inactive) | 69.8 µM (inactive) | 66.5 µM (inactive) | > 100 µM (inactive) | 44 µM (inactive) | – | 16.8 µM (inactive) | > 100 µM (inactive) | > 100 µM (inactive) | > 100 µM (inactive) | > 100 µM (inactive) | > 100 µM (inactive)
9 | O=C(N/N=C(\C1=Nc2ccc(Cl)cc2NC1O)C(O)/C=C/c1ccccc1)c1ccncc1 (configuration not stated) | > 100 µM (inactive) | > 100 µM (inactive) | > 100 µM (inactive) | > 100 µM (inactive) | > 100 µM (inactive) | > 100 µM (inactive) | > 100 µM (inactive) | > 100 µM (inactive) | > 100 µM (inactive) | 54.5 µM (inactive) | > 100 µM (inactive) | > 100 µM (inactive) | > 100 µM (inactive) | > 100 µM (inactive) | > 100 µM (inactive) | > 100 µM (inactive) | > 100 µM (inactive)
10 | COc1ccccc1/C=C1\CCC(CNc2ccc(Cl)cc2)C1=O (configuration not stated) | 4.86 µM (inactive) | 0.242 µM (active) | 5.14 µM (inactive) | 16.3 µM (inactive) | 9.75 µM (inactive) | 6.35 µM (inactive) | 0.226 µM (active) | 2.2 µM (inactive) | 0.36 µM (active) | 16.4 µM (inactive) | 2.09 µM (inactive) | 1.57 µM (inactive) | 7.76 µM (inactive) | 1.1 µM (active) | 10.6 µM (inactive) | 2.42 µM (inactive) | 14 µM (inactive)
11 | CC(=O)Oc1ccccc1 [ACETIC ACID PHENYL ESTER] | > 100 µM (inactive) | > 100 µM (inactive) | > 100 µM (inactive) | > 100 µM (inactive) | > 100 µM (inactive) | > 10 µM (inactive) | > 100 µM (inactive) | > 100 µM (inactive) | > 100 µM (inactive) | – | > 100 µM (inactive) | > 100 µM (inactive) | > 100 µM (inactive) | > 100 µM (inactive) | > 100 µM (inactive) | > 100 µM (inactive) | > 100 µM (inactive)
12 | O=c1c2c(-c3ccccc3)c3ccccc3nc2cnn1-c1ccccc1 | > 100 µM (inactive) | > 100 µM (inactive) | > 100 µM (inactive) | > 100 µM (inactive) | > 100 µM (inactive) | > 100 µM (inactive) | > 100 µM (inactive) | 70.3 µM (inactive) | > 100 µM (inactive) | > 100 µM (inactive) | 91.4 µM (inactive) | 26.7 µM (inactive) | > 100 µM (inactive) | 90.6 µM (inactive) | > 100 µM (inactive) | > 100 µM (inactive) | > 100 µM (inactive)
13 | COc1cc([C@@H]2c3cc4c(cc3[C@@H](NCc3cccc(F)c3)C3COC(=O)[C@@H]32)OCO4)cc(OC)c1O (some centres not stated) | 5.92 µM (inactive) | 4.9 µM (inactive) | 1.95 µM (inactive) | 8.85 µM (inactive) | 1.23 µM (inactive) | 9.77 µM (inactive) | 13.4 µM (inactive) | 8.61 µM (inactive) | 2.47 µM (inactive) | 7.53 µM (inactive) | 5.06 µM (inactive) | 6.93 µM (inactive) | 1.51 µM (inactive) | 7.01 µM (inactive) | 13.9 µM (inactive) | 6.85 µM (inactive) | 1.03 µM (active)
14 | COC(=O)C1C2CC3C(OC(=O)C31)C2OC(=O)[C@](OC)(c1ccccc1)C(F)(F)F (some centres not stated) | > 100 µM (inactive) | > 100 µM (inactive) | > 100 µM (inactive) | > 100 µM (inactive) | > 100 µM (inactive) | > 100 µM (inactive) | > 100 µM (inactive) | > 100 µM (inactive) | – | > 100 µM (inactive) | > 100 µM (inactive) | > 100 µM (inactive) | > 100 µM (inactive) | > 100 µM (inactive) | > 100 µM (inactive) | > 100 µM (inactive) | > 100 µM (inactive)
15 | Cc1cccc(C)c1NC(=O)C1=NC(=S)NC(c2ccccc2)C1c1nc2ccccc2s1 (configuration not stated) | > 100 µM (inactive) | > 100 µM (inactive) | > 100 µM (inactive) | > 100 µM (inactive) | > 100 µM (inactive) | > 100 µM (inactive) | > 100 µM (inactive) | > 100 µM (inactive) | > 100 µM (inactive) | > 100 µM (inactive) | > 100 µM (inactive) | > 100 µM (inactive) | – | > 100 µM (inactive) | – | > 100 µM (inactive) | > 100 µM (inactive)
16 | N#CCc1cccc(CC#N)c1Br | 86.5 µM (inactive) | > 100 µM (inactive) | > 100 µM (inactive) | 35 µM (inactive) | > 100 µM (inactive) | – | > 100 µM (inactive) | > 100 µM (inactive) | > 100 µM (inactive) | 45.2 µM (inactive) | > 100 µM (inactive) | > 100 µM (inactive) | > 100 µM (inactive) | > 100 µM (inactive) | > 100 µM (inactive) | > 100 µM (inactive) | > 100 µM (inactive)
17 | CN/C=C(\C(=O)c1ccc(OC)c(OC)c1)c1ccc(OC)cc1 | 24.2 µM (inactive) | 18.7 µM (inactive) | 30.3 µM (inactive) | 14 µM (inactive) | 9.29 µM (inactive) | > 10 µM (inactive) | 16 µM (inactive) | 16.3 µM (inactive) | 16.4 µM (inactive) | – | 17.3 µM (inactive) | 17 µM (inactive) | 24.7 µM (inactive) | 12.6 µM (inactive) | – | – | 11.3 µM (inactive)

Source: ChEMBL document CHEMBL1201862, “PubChem BioAssay data set” (2004)
